Test results reported in patent publication US10912741B2, “Prevention of liver cancer with safranal-based formulations” (United Arab Emirates University, priority 2019, dated 2021).
Marks after values point to notes of the source that are not given here.

Columns and labels:
[1] = system: ED-2 (Kupffer cells); test: Immunohistochemical staining of liver sections, ED-2 positive cells (Kupffer cells); format: in vivo, albino Wistar rats; details: mean±SEM, 8 rats
Protocol: (§1) The experimental hepatocarcinogenesis model was developed according to a protocol by Espandiaria et al. that was adapted for our purposes. To initiate and promote hepatocarcinogenesis, diethylnitrosamine (DEN) and 2-acetylaminofluorene (2-AAF) were used, respectively. For hepatocarcinogenesis initiation in this model, a single DEN dose (200 mg/kg b.wt.) dissolved in saline was injected intraperitoneally. After initiation, all rats underwent one period of 5-days fasting, as mitotic proliferative stimuli. To promote hepatocarcinogenesis, 2-acetylaminofluorene (2-AAF) was introduced in the form of six daily intragastric doses (30 mg/kg in 1% Tween 80); two weeks after DEN treatment.
(§2) Safranal at doses of 25 mg/kg by weight (b.wt.) and 50 mg/kg b.wt, was administrated orally to rats. These doses have been reported to suppress chemically-induced oxidative damage in rats. A total of 40 adult male albino Wistar rats were randomly divided into […] (n=8) and were subjected to different treatments. Group 1 (control) was orally administered distilled water (5 ml/kg b.wt.) throughout the experimental duration and were injected with a single dose of saline. Group 2 (Safranal only) was subjected to a safranal dose (50 mg/kg b.wt.) through oral administration for the duration of the experimental period. Hepatocarcinogenesis was induced by DEN and promoted by 2-AAF, as reported previously, in group 3 (HCC). Rats in protective groups (groups 4-5) were treated with low/high doses of saffron-based safranal suspensions, at the beginning of promotion periods and continued for 12 weeks. The low dosage treatment with safranal consisted of 25 mg/kg b.wt., and the high dosage treatment consisted of 50 mg/kg b.wt. The experimental design is illustrated in FIG. 1.
(§3) For immunohistochemical staining, mounted sections were immersed in sodium citrate buffer (0.1 M, pH 6) and placed in a water bath for 15 minutes to unmask antigen epitopes. […] Ten fields were randomly selected to quantify positive cells, in individual samples (400×). […]

[2] = system: iNOS; test: Immunohistochemical staining of liver sections, iNOS positive cells; format: in vivo, albino Wistar rats; details: mean±SEM, 8 rats
Protocol: as §1, §2, §3

[3] = system: COX-2; test: Immunohistochemical staining of liver sections, COX-2 positive cells; format: in vivo, albino Wistar rats; details: mean±SEM, 8 rats
Protocol: as §1, §2, §3

[4] = system: placental glutathione s-transferase (GST-p); test: Immunohistochemical staining of liver sections, GST-p positive foci; format: in vivo, albino Wistar rats
Protocol: as §1
(§4) Safranal at doses of 25 mg/kg by weight (b.wt.) and 50 mg/kg b.wt, was administrated orally to rats. These doses have been reported to suppress chemically-induced oxidative damage in rats. A total of 40 adult male albino Wistar rats were randomly divided into […] (n=8) and were subjected to different treatments. […]
as §3

[5] = system: p-TNF-R1; test: Immunohistochemical staining of liver sections, p-TNF-R1 positive cells; format: in vivo, albino Wistar rats
Protocol: as §1, §4, §3

[6] = system: NF-kB-p65; test: Immunohistochemical staining of liver sections, NF-kB-p65 positive cells; format: in vivo, albino Wistar rats; details: low/high doses of safranal, DEN-exposed rats, vs HCC group
Protocol: as §1, §4, §3

[7] = system: p-IkB in HepG2 cells; test: Western blotting, p-IkB; format: cell-based, human; details: starting at 24 hours of safranal treatment (1 mM)
Protocol: HepG2, were cultured in RPMI 1640 medium (HyClone, USA) and 1% of 100 U/ml penicillin and 100 ug/ml streptomycin (Sigma, USA) supplemented with 10% fetal bovine serum (Sigma, USA) at 37° C. in a humidified 5% CO2 atmosphere. Cells were sub-cultured each 4-6 days using trypsin 0.25% (Hyclone, USA).
In 100 mm plates, HepG2 cells were seeded at a density of 2×10^4 in complete growth medium. Cells were allowed to attach for 24 hours, after which complete growth medium was replaced by serum-free medium. Cells were treated with safranal at a concentration of 1 mM (20 mM stock). Plates were incubated for 6, 12, 24, and 48 hours in a humidified 5% CO2 atmosphere at 37° C. At indicated times, 1 mL of cell supernatant was obtained from each plate and was stored at −80° C. for further analysis by ELISA. After which whole cell lysates were prepared. Bicinchoninic acid (BCA) assay (Sigma-Aldrich, USA) was used to determine concentration of protein. Thirty μg of protein were loaded onto 10% SDS polyacrylamide electrophoresis gels. The gels were transferred onto nitrocellulose membranes prior to immunodetection processing with anti-p-IkB-alpha, anti-H2AX (Cell Signaling Technology, USA), and with anti-rabbit IgG peroxidase conjugated secondary antibodies. […]

[8] = HCC (DEN/2-AAF) rats + safranal high dose 50 mg/kg b.wt. oral, 12 weeks
[9] = HCC (DEN/2-AAF) rats + safranal low dose 25 mg/kg b.wt. oral, 12 weeks
[10] = safranal alone 50 mg/kg b.wt. oral, no DEN (group 2)

Question: CC1=C(C=O)C(C)(C)CC=C1 [Safranal, 2,6,6-trimethylcyclohexa-1,3-diene-1-carbaldehyde] was tested. Which ED-2 positive cells [1, 8] did it give?
Answer: Its ED-2 positive cells is 46.44 ± 3.12^b positive cells/field.

Question: What about the ED-2 positive cells [1, 9] of the same compound?
Answer: Its ED-2 positive cells is 46.75 ± 3.04^b positive cells/field.

Question: What about the ED-2 positive cells [1, 10] of the same compound?
Answer: Its ED-2 positive cells is 39.30 ± 1.77 positive cells/field.

Question: What about the iNOS positive cells [2, 8] of the same compound?
Answer: The iNOS positive cells was 2.57 ± 0.30^b positive cells/field.

Question: And the iNOS positive cells [2, 9]?
Answer: The iNOS positive cells was 5.09 ± 0.26^a&b positive cells/field.

Question: What about the iNOS positive cells [2, 10] of the same compound?
Answer: The iNOS positive cells was 0.87 ± 0.04 positive cells/field.

Question: What about the COX-2 positive cells [3, 8] of the same compound?
Answer: Its COX-2 positive cells is 6.91 ± 1.09^a&b positive cells/field.

Question: What about the COX-2 positive cells [3, 9] of the same compound?
Answer: The COX-2 positive cells was 2.15 ± 0.38^b positive cells/field.

Question: And the COX-2 positive cells [3, 10]?
Answer: Its COX-2 positive cells is 0.58 ± 0.04 positive cells/field.

Question: What about the “number of GST-p positive foci and area/cm^2” value ([4]; safranal treatment after DEN exposure (groups 4-5, 25/50 mg/kg b.wt.)) of the same compound?
Answer: Its value is “significantly reduced the number of GST-p positive foci and the area/cm^2”.

Question: What about the GST-p positive foci ([4]; safranal treatment alone (group 2)) of the same compound?
Answer: The GST-p positive foci was “did not induce formation of such foci”.

Question: And the “number of p-TNF-R1 positive cells” value ([5]; low/high doses of safranal, DEN-2-AAF-treated animals (groups 4-5), vs HCC group)?
Answer: The value was “highly significant decrease”.

Question: And the “number of p-TNF-R1 positive cells” value ([5]; safranal alone, compared to control group)?
Answer: The value was “change of no significance”.

Question: What about the “number of NF-kB-p65-positive cells” value [6] of the same compound?
Answer: Its value is “significantly reduced the number of NF-kB-p65-positive cells”.

Question: What about the “level of p-IkB protein” value [7] of the same compound?
Answer: Its value is “transiently decreased”.
